Measurements reported in patent publication US4393228A, “Epoxysuccinic acid derivatives” (Taisho Pharmaceutical Co., Ltd., priority 1977, dated 1983).
Structures can show the parent of a compound that is named as a salt. Where two headings read alike, the source gives them in different places.

Tests used:
[1] = tested on: adjuvant induced polyarthritis; assay: Inhibition of adjuvant induced polyarthritis in rats (hind paw volume); assay type: in vivo, Sprague Dawley rat; details: Rattus norvegicus, 100 mg/kg of body weight, daily oral
Description: Effect of the compounds of this invention on the development of adjuvant-induced polyarthritis in rats was assayed as follows: Adjuvant arthritis was produced by a single intracutaneous injection of 0.1 ml of the adjuvant mixture containing heat-killed mycobacteria of the human Aoyama B strain suspended in liquid paraffin in 0.6% in the middle part of the distal tail of Sprague Dawley rat (female, 8 weeks old). […] The activity was measured as the mean inhibition percent for the increase of the hind paw volume of the 8 rats/group on the days 17 and 23 on which the legs become inflamed and reach maximum volumes. The compound Nos. in Table 2 are as defined in Examples as described hereinafter.

papain = target: T1, papain (Carica papaya, UniProt P00784); assay: Papain inhibitory activity (milk casein digestion); assay type: biochemical; details: papain 80 μg/ml 0.5 ml, cysteine, pH 6.8, 1% milk casein, 40° C., 10 minutes
T1 construct: purchased Sigma Chem. Co
T1 sequence (P00784 134-345): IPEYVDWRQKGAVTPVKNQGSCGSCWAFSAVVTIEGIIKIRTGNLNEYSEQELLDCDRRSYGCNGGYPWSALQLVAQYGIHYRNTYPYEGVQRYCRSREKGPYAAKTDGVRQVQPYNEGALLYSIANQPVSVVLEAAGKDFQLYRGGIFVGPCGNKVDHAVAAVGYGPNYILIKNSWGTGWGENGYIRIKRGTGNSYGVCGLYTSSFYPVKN
Method in brief: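 Papain (80 μg/ml stock) preincubated 15 min at 40 °C with inhibitor, cysteine/EDTA activator and phosphate buffer pH 6.8. Then 1% milk casein digested 10 min at 40 °C, stopped with trichloroacetic acid and filtered; filtrate absorbance at 280 nm gives percent inhibition versus no-inhibitor control.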

[2] = 408 h, day 17, read-out: Inhibition % 17 days (increase of hind paw volume)
[3] = 552 h, day 23, read-out: Inhibition % 23 days (increase of hind paw volume)

Structure (SMILES)	inhibition in vivo at 100 mg/kg [1, 2] [%]	inhibition in vivo at 100 mg/kg [1, 3] [%]	ID50 (amount of inhibitor for 50% inhibition) (papain)
O=C(OC1CCCCC1)[C@@H]1O[C@H]1C(=O)OC1CCCCC1 (relative stereo) [EP-1, dicyclohexyl epoxysuccinate]	82.1	77	1.98 γ
O=C(O)[C@@H]1O[C@H]1C(=O)OC1CCCCC1 (relative stereo) [EP-2, cyclohexyl potassium epoxysuccinate]	43.2	50	0.07 γ
CCCCOC(=O)C1OC1C(=O)N[C@@H](CCCNC(=O)OCc1ccccc1)C(=O)OCc1ccccc1 (stereo partly drawn) [EP-183, N^α -(3-n-buthoxycarbonyloxirane-2-carbonyl)-N^δ -carbobenzoxy-L-ornithine benzyl ester]			4.46 γ
COC(=O)[C@H](CCCNC(=N)N[N+](=O)[O-])NC(=O)C1OC1C(=O)OCc1ccccc1 (stereo partly drawn) [EP-184, N^α -(3-benzyloxycarbonyloxirane-2-carbonyl)-N^G -nitro-L-arginine methyl ester]			2.91 γ
CCOC(=O)C1OC1C(=O)N[C@@H](Cc1c[nH]cn1)C(=O)OC (stereo partly drawn) [EP-185, N^α -(3-ethoxycarbonyloxirane-2-carbonyl)-L-histidine methyl ester]			14.05 γ
CCOC(=O)C1OC1C(=O)N[C@@H](CO)C(=O)OCC (stereo partly drawn) [EP-186, N^α -(3-ethoxycarbonyloxirane-2-carbonyl)-L-serine ethyl ester]			23.15 γ
O=C(NCCCC[C@H](NC(=O)C1OC1C(=O)OCCc1ccccc1)C(=O)OCc1ccccc1)OCc1ccccc1 (stereo partly drawn) [EP-187, N^α -(3-phenethyloxycarbonyloxirane-2-carbonyl)-N^ε -carbobenzoxy-L-lysine benzyl ester]			1.40 γ
O=C(NCCCC[C@H](NC(=O)C1OC1C(=O)OCCCc1ccccc1)C(=O)OCc1ccccc1)OCc1ccccc1 (stereo partly drawn) [EP-188, N^α -[3-(3'-phenylpropyloxy)-carbonyloxirane-2-carbonyl]-N^ε -carbobenzoxy-L-lysine benzyl ester]			1.86 γ
CCOC(=O)[C@@H](NC(=O)C1OC1C(=O)OC)[C@@H](C)O (stereo partly drawn) [EP-190, N-(3-methoxycarbonyloxirane-2-carbonyl)-L-threonine ethyl ester]			17.13 γ
O=C(N[C@@H](CSCc1ccccc1)C(=O)OCc1ccccc1)C1OC1C(=O)OCc1ccccc1 (stereo partly drawn) [EP-191, N-(3-benzyloxycarbonyloxirane-2-carbonyl)-S-benzyl-L-cysteine benzyl ester]			5.51 γ
CCOC(=O)C1OC1C(=O)N[C@@H](C)C(=O)OC(C)(C)C (stereo partly drawn) [EP-192, N-(3-ethoxycarbonyloxirane-2-carbonyl)-L-alanine-t-butyl ester]			40.50 γ
CCOC(=O)C1OC1C(=O)N[C@@H](CC(=O)OCc1ccccc1)C(=O)OCc1ccccc1 (stereo partly drawn) [EP-193, N-(3-ethoxycarbonyloxirane-2-carbonyl)-L-aspartic acid dibenzyl ester]			20.50 γ
CCOC(=O)C1OC1C(=O)N[C@@H](CC(N)=O)C(=O)OCc1ccccc1 (stereo partly drawn) [EP-194, N-(3-ethoxycarbonyloxirane-2-carbonyl)-L-asparagine benzyl ester]			22.60 γ
CCOC(=O)[C@H](CCCCNC(=O)OCc1ccccc1)NC(=O)C1OC1C(=O)[O-].[K+] (stereo partly drawn) [EP-195, N^α -(3-carboxyoxirane-2-carbonyl)-N^ε -carbobenzoxy-L-lysine ethyl ester potassium salt]			0.43 γ
O=C(NCCC[C@H](NC(=O)C1OC1C(=O)O)C(=O)OCc1ccccc1)OCc1ccccc1 (stereo partly drawn) [EP-196, N^α -(3-carboxyoxiane-2-carbonyl)-N^δ -carbobenzoxy-L-ornithine benzyl ester potassium salt]			0.11 γ
O=C(NCCCC[C@H](NC(=O)C1OC1C(=O)[O-])C(=O)OCc1ccccc1)OCc1ccccc1.[K+] (stereo partly drawn) [EP-197, N^α -(3-carboxyoxirane-2-carbonyl)-N^ε -carbobenzoxy-L-lysine benzyl ester potassium salt]			0.98 γ
COC(=O)[C@H](CCCNC(=O)OCc1ccccc1)NC(=O)C1OC1C(=O)[O-].[K+] (stereo partly drawn) [EP-198, N^α -(3-carboxyoxirane-2-carbonyl)-N^δ -carbobenzoxy-L-ornithine methyl ester potassium salt]			0.15 γ
CCCCOC(=O)[C@H](CCCNC(=O)OCc1ccccc1)NC(=O)C1OC1C(=O)[O-].[K+] (stereo partly drawn) [EP-199, N^α -(3-carboxyoxirane-2-carbonyl)-N^δ -carbobenzoxy-L-ornithine n-butyl ester potassium salt]			0.14 γ

Structure (SMILES)	inhibition in vivo at 100 mg/kg [1, 2] [%]	inhibition in vivo at 100 mg/kg [1, 3] [%]	ID50 (amount of inhibitor for 50% inhibition) (papain)
COC(=O)[C@H](CCCNC(=N)N)NC(=O)C1OC1C(=O)O (stereo partly drawn) [EP-200, N-(3-carboxyoxirane-2-carbonyl)-L-arginine methyl ester]			0.88 γ
CCOC(=O)C1OC1C(=O)N[C@@H](CCCCN)C(=O)O (stereo partly drawn) [EP-201, N-(3-ethoxycarbonyloxirane-2-carbonyl)-L-lysine]			25.51 γ
N=C(N)NCCC[C@H](NC(=O)C1OC1C(=O)O)C(=O)O (stereo partly drawn) [EP-202, N-(3-carboxyoxirane-2-carbonyl)-L-arginine]			21.93 γ
CCOC(=O)[C@H](CC(C)C)NC(=O)C1OC1C(=O)OCCCC1CCCC1 (stereo partly drawn) [EP-203, N-[3-(3'-cyclopentylpropyloxy)carbonyloxirane-2-carbonyl]-L-leucine ethyl ester]			0.12 γ
O=C(NCCCC[C@H](NC(=O)C1OC1C(=O)OC1CC1)C(=O)OCc1ccccc1)OCc1ccccc1 (stereo partly drawn) [EP-204, N^α -(3-cyclopropyloxycarbonyloxirane-2-carbonyl)-N^ε-carbobenzoxy-L-lysine benzyl ester]			15.20 γ
CC(C)[C@H](NC(=O)C1OC1C(=O)OC1CCCC1)C(=O)OCc1ccccc1 (stereo partly drawn) [EP-205, N-(3-cyclopentyloxycarbonyloxirane-2-carbonyl)-L-valine benzyl ester]			0.82 γ
CC(OC(=O)C1OC1C(=O)N[C@@H](CCCCN)C(=O)OCc1ccccc1)C1CCCC1 (stereo partly drawn) [EP-206, N-[3-(1'-cyclopentylethoxy)-carbonyloxirane-2-carbonyl]-L-lysine benzyl ester]			0.12 γ
O=C(CC[C@H](NC(=O)C1OC1C(=O)OC1CCCCCCC1)C(=O)OCc1ccccc1)OCc1ccccc1 (stereo partly drawn) [EP-209, N-(3-cyclooctyloxycarbonyloxirane-2-carbonyl)-L-glutamic acid dibenzyl ester]			2.45 γ
CCOC(=O)[C@H](Cc1ccccc1)NC(=O)C1OC1C(=O)OC1C2CC3CC(C2)CC1C3 (stereo partly drawn) [EP-210, N-[3-(2'-adanatyloxy)-carbonyloxirane-2-carbonyl]-L-phenyl alanine ethyl ester]			1.12 γ
O=C(N[C@@H](Cc1ccc(O)cc1)C(=O)OCc1ccccc1)C1OC1C(=O)OCC1CC=CCC1 (stereo partly drawn) [EP-211, N-[3-(3'-cyclohexen-1-yl)-methoxycarbonyloxirane-2-carbonyl]-L-tyrosine benzyl ester]			0.61 γ
CCOC(=O)[C@H](Cc1ccccc1)NC(=O)C1OC1C(=O)OC1CCCCC1C (stereo partly drawn) [EP-212, N-[3-(2'-cis-methylcyclohexyloxy)carbonyloxirane-2-carbonyl]-L-phenylalanine ethyl ester]			1.21 γ
O=C(CNC(=O)C1OC1C(=O)OC1CCCC1Cl)OCc1ccccc1 (stereo not drawn) [EP-213, N-[3-(2'-cis-chlorocyclopentyloxy)-carbonyloxirane-2-carbonyl]-glycine benzyl ester]			6.75 γ
CC(C)C[C@H](NC(=O)C1OC1C(=O)OC1CCCC1Br)C(=O)OCc1ccccc1 (stereo partly drawn) [EP-214, N-[3-(2'-trans-bromocyclopentyloxy)-carbonyloxirane-2-carbonyl]-L-leucine benzyl ester]			0.13 γ
COC(=O)[C@H](C)NC(=O)C1OC1C(=O)O[C@H]1CC[C@H](C)CC1 (stereo partly drawn) [EP-215, N-[3-(4'-trans-methylcyclohexyloxy)-carbonyloxirane-2-carbonyl]-L-alanine methyl ester]			3.55 γ
CCCCOC(=O)[C@H](CC(C)C)NC(=O)C1OC1C(=O)OCc1ccco1 (stereo partly drawn) [EP-217, N-[3-furfuryloxycarbonyloxirane-2-carbonyl]-L-leucine n-butyl ester]			0.25 γ
CC(C)(C)OC(=O)[C@H](Cc1ccccc1)NC(=O)C1OC1C(=O)OCC1CCCO1 (stereo partly drawn) [EP-218, N-[3-tetrahydrofurfuryloxycarbonyloxirane-2-carbonyl]-L-phenylalanine t-butyl ester]			1.65 γ
CCOC(=O)[C@@H](NC(=O)C1OC1C(=O)OCc1cccc2ccccc12)C(C)C (stereo partly drawn) [EP-219]			2.12 γ
